Columns and labels:
Type in all cases: in vivo, human
[1] = system: group of experts; assay: Sensory evaluation of Balansin A and Balansin B by a group of experts; details: 50 ppm in water and in a 5 wt % aqueous saccharose solution; Balansin A described in the aqueous solution
Source text: A group of experts tasted and sensorily evaluated the two isolated compounds Balansin A and Balansin B from Example 4, each at a concentration of 50 ppm in water and a 5 wt % aqueous saccharose solution.

[2] = system: group of at least five persons; assay: Intrinsic sweetness against a saccharose reference series (saccharose equivalents); details: 50 ppm, against saccharose reference series in water
Source text: To determine the sweet impression of the extracts according to the invention or of the compounds according to the invention of the formula (I) compared to an aqueous saccharose solution, an aqueous solution of one or a plurality of compounds of the formula (I) is produced in the same concentration as is present in the orally consumable formulation under study. This aqueous solution is then compared and rated for taste by a group of at least five persons against a reference series of different saccharose concentrations in water. In this way, the saccharose equivalence is determined (indicated in saccharose equivalents), in other words, the concentration of the saccharose solution, whose sweet impression is equivalent to the sweet impression of the concentration of compounds of the formula (I). Preferred concentrations of the saccharose reference solution are 0; 0.25; 0.5; 0.75; 1; 1.5; 2; 3; 4 and 5 wt % saccharose in water. If necessary, other concentrations, particularly higher concentrations, can also be used for the reference series. The ascertained saccharose equivalent is obtained from the mean value of the individual rating of the individual panelists. The panelists are preferably persons who have experience in the field of tasting, are of different age and gender and come from different backgrounds. […]

[3] = system: group of experts; assay: Reinforcing the sweet impression of a 5 wt % saccharose solution; details: for % Reinforcement of the sweet impression: versus saccharose solution alone; for Sweet impression (1-10) with: rating 1 [not sweet] to 10 [extremely sweet]
Description: In order to quantify the reinforcement of the sweet impression, the sweetness of a 5 wt %-containing saccharose solution and of a sample which contained 5 wt % saccharose and a quantity of the test substance or test extract was determined by a group of experts (rating 1 [not sweet] to 10 [extremely sweet]). The analysis was performed as a calculation of the […] (in %) of the sweet impression from the average values of the assessments of the saccharose solution and of the solution containing saccharose and Compound 2 (p was determined as a significance measure according to the paired, two-tailed Student's statistical test).

[4] = 25 ppm in 5 wt % saccharose solution
[5] = 50 ppm in 5 wt % saccharose solution

Row | Compound | Sensory evaluation (taste description) [1] | Intrinsic sweetness, equivalent to the sweetness of saccharose [2] | % Reinforcement of the sweet impression [3, 4] | Sweet impression (1-10) with [3, 4] | % Reinforcement of the sweet impression [3, 5] | Sweet impression (1-10) with [3, 5]
1 | CC(C)(O)C(O)C/C=C(\CO)[C@H]1CC[C@]2(C)[C@@H]1CC[C@@H]1[C@@]3(C)CC[C@H](O[C@@H]4O[C@H](CO)[C@@H](O)[C@H](O)[C@H]4OC4O[C@H](CO)[C@@H](O)[C@H](O)[C@H]4O)C(C)(C)[C@@H]3CC[C@]12C (some centres unmarked) [Balansin A] | intensely sweet, also as slightly bitter and displayed a sweetener-type note | 2 % saccharose | 48% (p < 0.00005) | 7.2 ± 1.4 |  | 
2 | CC(C)(O)C(O)C/C=C(\CO)[C@H]1CC[C@]2(C)[C@@H]1CC[C@@H]1[C@@]3(C)CC[C@H](O[C@@H]4O[C@H](COC5OC(CO)[C@@H](O)[C@H](O)[C@H]5O)[C@@H](O)[C@H](O)[C@H]4OC4O[C@H](CO)[C@@H](O)[C@H](O)[C@H]4O)C(C)(C)[C@@H]3CC[C@]12C (some centres unmarked) [Balansin B] | slightly bitter, slightly sweetener-type and weakly ethanolic, but otherwise displayed no noticeable intrinsic taste | 1 % saccharose |  |  | 31% (p < 0.0005) | 6.7 ± 1.1
